Reference: US6503931B1, “Use of 4-amino pyridine for treatment of peripheral neuropathies” (The UAB Research Foundation, priority 1999, dated 2003)

Columns and labels:
Type in all cases: in vivo, human
subjects with GBS [1] = test: Serum laboratories drawn at start and every week of the study
From the text: This was a Phase I double-blind, placebo controlled, crossover, dose escalating study in subjects with GBS similar to those proposed for MS and SCI. An initial trial of ten patients will be randomized to […] of the two treatment sequences (A or B) as shown below.
The study population consists of subjects with GBS injury whose neurological status has been stable for at least eighteen months. Ten subjects will be enrolled.
In addition, serum laboratories were drawn at the beginning of the study and every week of the study. The serum laboratories included glucose, blood urea nitrogen, creatinine, uric acid, calcium, total protein, albumin, phosphate, total bilirubin, cholesterol, LDH, SGOT/AST, alkaline phosphatase, hematocrit, hemoglobin, red blood cell count, platelet count, and white blood cell count with differential.

subjects with GBS [2] = test: Motor strength on 0-5 ordinal scale, Phase I double-blind placebo controlled crossover study
From the text: This was a Phase I double-blind, placebo controlled, crossover, dose escalating study in subjects with GBS similar to those proposed for MS and SCI. An initial trial of ten patients will be randomized to […] of the two treatment sequences (A or B) as shown below. The study population consists of subjects with GBS injury whose neurological status has been stable for at least eighteen months. Ten subjects will be enrolled. Motor strength was rated on the traditional 0-5 ordinal scale: 0—absent motor strength 1—trace motor strength 2—can move the specified joint but only with gravity eliminated 3—can move the joint against gravity but not against any opposing force 4—can move the joint against opposing force but the strength is not normal for the person or symmetrical 5—normal motor strength This scale was employed to measure the following motor strength for each of these joint motions on both the right and the left sides: hip flexion, hip adduction, hip abduction, knee flexion, knee extension, ankle dorsi-flexion, ankle plantar flexion, shoulder abduction, elbow extension, elbow flexion, wrist flexion, and wrist extension. [table]

subjects with GBS [3] = test: Hand grip strength on hand dynamometer, same study; settings: hand-held dynamometer; p=0.0243 paired Student's t-test; repeated measures ANOVA p=0.0715; FIG. 3
Procedure: This was a Phase I double-blind, placebo controlled, crossover, dose escalating study in subjects with GBS similar to those proposed for MS and SCI. An initial trial of ten patients will be randomized to […] of the two treatment sequences (A or B) as shown below. The study population consists of subjects with GBS injury whose neurological status has been stable for at least eighteen months. Ten subjects will be enrolled. Hand grip strength was measured on a hand dynamometer that had been calibrated. Each patient was given three trials separated by thirty second rest periods and the strongest of the three measurements was recorded for each hand. [table]

[4] = serum laboratory, before change
[5] = serum laboratory, statistically significant, not clinically significant

Nc1ccncc1 [4-aminopyridine]
Hematocrit, starting value (subjects with GBS [1]; before change): 42.7
All other laboratories, change while on the active agent (subjects with GBS [1]; glucose, BUN, creatinine, calcium, proteins, bilirubin, cholesterol, LDH, alkaline phosphatase, blood counts etc.): no significant change
SGOT, starting value (subjects with GBS [1]; [4]): 25.1
Uric acid, starting value (subjects with GBS [1]; [4]): 6.4
SGOT, after change on the active agent (subjects with GBS [1]; [5]): 27.9
Uric acid, after change on the active agent (subjects with GBS [1]; [5]): 6.5
Hematocrit, after change on the active agent (subjects with GBS [1]; statistically significant, not clinically significant): 41.6
Lower extremity strength, average motor score on the active medication (subjects with GBS [2]; 0-5 scale, 10-20 mg bid escalating, p<0.0001, Friedeman's, FIG. 1): 3.7
Upper extremity strength, average motor score after increase (subjects with GBS [2]; 0-5 scale, 10-20 mg bid escalating, p=0.0065, Friedeman's, FIG. 2): 3.7
Upper extremity strength, average motor score, starting value (subjects with GBS [2]; 0-5 scale, value before increase, FIG. 2): 3.2
Lower extremity strength, average motor score, starting value (subjects with GBS [2]; 0-5 scale, value before increase, seven GBS patients, FIG. 1): 3.2
Duration of neural biological effects after stopping the drug (subjects with GBS [2]; patients on active agent first, motor and grip strength continued to drop for up to two additional weeks after one week washout): more than two weeks
Grip strength, start of study compared to after four weeks of treatment (subjects with GBS [3]): increased significantly
